Experimental data from US10722514B2 (FLX Bio, Inc., priority 2017, dated 2020).
Counter-ions that a name gives are not always drawn.

Molecular target: T1, recombinant full-length USP7 (Homo sapiens, UniProt Q93009)
T1 construct: A 25 μl reaction volume containing recombinant full-length USP7 (62 pM)
Assay: USP7-mediated ubiquitin-rhodamine cleavage assay
Type: biochemical
Conditions: recombinant full-length USP7 62 pM; ubiquitin-rhodamine 100 nM; 30-minute pre-incubation, 1 hour reaction at room temperature; read-out: Potency (USP7 IC50)
Method in brief: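 Compounds are first incubated with 62 pM enzyme for 30 min at room temperature in pH 7.3 HEPES buffer containing TCEP and BSA. Cleavage of 100 nM ubiquitin-rhodamine proceeds for 1 h before an acid quench, and IC50 is derived from fluorescence.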

T1 sequence (Q93009 whole entry): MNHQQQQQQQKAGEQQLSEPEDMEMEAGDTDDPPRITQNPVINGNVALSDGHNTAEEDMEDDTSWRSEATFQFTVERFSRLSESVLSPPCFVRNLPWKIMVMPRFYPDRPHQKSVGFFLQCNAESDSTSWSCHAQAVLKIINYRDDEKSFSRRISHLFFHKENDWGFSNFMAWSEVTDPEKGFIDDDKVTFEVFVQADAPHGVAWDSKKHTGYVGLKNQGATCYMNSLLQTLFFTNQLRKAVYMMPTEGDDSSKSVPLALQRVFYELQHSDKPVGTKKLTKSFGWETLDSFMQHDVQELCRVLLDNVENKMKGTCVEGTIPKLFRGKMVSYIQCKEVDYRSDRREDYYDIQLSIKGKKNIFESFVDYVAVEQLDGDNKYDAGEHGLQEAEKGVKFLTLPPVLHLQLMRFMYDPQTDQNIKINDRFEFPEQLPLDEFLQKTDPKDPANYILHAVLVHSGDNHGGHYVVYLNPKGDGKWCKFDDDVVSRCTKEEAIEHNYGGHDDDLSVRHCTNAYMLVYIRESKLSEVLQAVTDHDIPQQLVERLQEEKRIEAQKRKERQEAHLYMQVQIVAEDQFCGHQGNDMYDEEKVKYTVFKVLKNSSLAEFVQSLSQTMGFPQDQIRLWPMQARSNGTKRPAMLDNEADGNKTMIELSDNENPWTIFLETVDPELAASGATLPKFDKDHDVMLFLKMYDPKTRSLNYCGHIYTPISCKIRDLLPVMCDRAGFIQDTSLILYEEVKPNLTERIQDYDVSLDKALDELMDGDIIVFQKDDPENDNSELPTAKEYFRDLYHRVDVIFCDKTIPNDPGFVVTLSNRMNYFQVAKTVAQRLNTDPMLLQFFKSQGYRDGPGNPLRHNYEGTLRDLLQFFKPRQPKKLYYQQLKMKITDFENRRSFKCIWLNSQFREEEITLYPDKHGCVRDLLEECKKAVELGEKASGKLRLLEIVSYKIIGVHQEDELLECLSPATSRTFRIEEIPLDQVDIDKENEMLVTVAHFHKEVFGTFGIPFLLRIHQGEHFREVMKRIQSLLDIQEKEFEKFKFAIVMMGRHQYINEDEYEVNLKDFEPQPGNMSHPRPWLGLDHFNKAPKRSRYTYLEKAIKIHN

| Structure (SMILES) | IC50 |
| --- | --- |
| Cc1cc(C(F)(F)F)cc(-c2ccnc3cc(Cn4c(=O)ccn(C)c4=O)sc23)c1OC1CCNCC1 [Example 446, 1-methyl-3-[[7-[3-methyl-2-(4-piperidyloxy)-5-(trifluoromethyl)phenyl]thieno[3,2-b]pyridin-2-yl]methyl]pyrimidine-2,4-dione] | < 1000 nM |
| Cc1cc(Cl)cc(-c2ccnc3cc(Cn4c(=O)ccn(C(C)C)c4=O)sc23)c1O[C@H]1CCCNC1 [Example 447, 3-[[7-[5-chloro-3-methyl-2-[[(3S)-3-piperidyl]oxy]phenyl]thieno[3,2-b]pyridin-2-yl]methyl]-1-isopropyl-pyrimidine-2,4-dione] | < 1000 nM |
| Cc1cc(Cl)cc(-c2ccnc3cc(CN4C(=O)CCC4=O)sc23)c1O[C@H]1CCCN(C)C1 [Example 448, 1-[[7-[5-chloro-3-methyl-2-[[(3S)-1-methyl-3-piperidyl]oxy]phenyl]thieno[3,2-b]pyridin-2-yl]methyl]pyrrolidine-2,5-dione] | < 1000 nM |
| Cc1cc(Cl)cc(-c2ccnc3cc(CN4C(=O)CCC4=O)sc23)c1O[C@H]1CCCN(C2COC2)C1 [Example 449, 1-[[7-[5-chloro-3-methyl-2-[[(3S)-1-(oxetan-3-yl)-3-piperidyl]oxy]phenyl]thieno[3,2-b]pyridin-2-yl]methyl]pyrrolidine-2,5-dione] | < 1000 nM |
| Cc1cc(Cl)cc(-c2ccnc3cc(CN4C(=O)CCC4=O)sc23)c1OC1CCOCC1 [Example 450, 1-[[7-(5-chloro-3-methyl-2-tetrahydropyran-4-yloxy-phenyl)thieno[3,2-b]pyridin-2-yl]methyl]pyrrolidine-2,5-dione] | < 1000 nM |
| Cc1cc(Cl)cc(-c2ccnc3cc(Cn4c(=O)ccn(C(C)C)c4=O)sc23)c1O[C@@H]1CNC[C@@H]1F [Example 451, 3-[[7-[5-chloro-2-[(3R,4S)-4-fluoropyrrolidin-3-yl]oxy-3-methyl-phenyl]thieno[3,2-b]pyridin-2-yl]methyl]-1-isopropyl-pyrimidine-2,4-dione] | < 1000 nM |
| CCn1ccc(=O)n(Cc2cc3nccc(-c4cc(Cl)cc(C)c4O[C@@H]4CNC[C@@H]4F)c3s2)c1=O [Example 452, 3-[[7-[5-chloro-2-[(3R,4S)-4-fluoropyrrolidin-3-yl]oxy-3-methyl-phenyl]thieno[3,2-b]pyridin-2-yl]methyl]-1-ethyl-pyrimidine-2,4-dione] | < 1000 nM |
| Cc1cc(Cl)cc(-c2ccnc3cc(Cn4c(=O)ccn(C)c4=O)sc23)c1O[C@H]1CCNC[C@H]1C [Example 453] | < 1000 nM |
| Cc1cc(C#N)cc(-c2ccnc3cc(Cn4c(=O)ccn(C)c4=O)sc23)c1OC1CCNCC1 [Example 454, 3-methyl-5-[2-[(3-methyl-2,6-dioxo-pyrimidin-1-yl)methyl]thieno[3,2-b]pyridin-7-yl]-4-(4-piperidyloxy)benzonitrile] | < 1000 nM |
| CCN1CC[C@@H](Oc2c(C)cc(Cl)cc2-c2ccnc3cc(Cn4c(=O)ccn(C)c4=O)sc23)[C@@H](C)C1 [Example 455, 3-[[7-[5-chloro-2-[[(3S,4R)-1-ethyl-3-methyl-4-piperidyl]oxy]-3-methyl-phenyl]thieno[3,2-b]pyridin-2-yl]methyl]-1-methyl-pyrimidine-2,4-dione] | < 1000 nM |
| Cc1cc(C(F)(F)F)cc(-c2ccnc3cc(Cn4c(=O)ccn(C)c4=O)sc23)c1O[C@@H]1CC[C@@H](N)C1 [Example 456, 3-[[7-[2-[(1R,3R)-3-aminocyclopentoxy]-3-methyl-5-(trifluoromethyl)phenyl]thieno[3,2-b]pyridin-2-yl]methyl]-1-methyl-pyrimidine-2,4-dione dihydrochloride] | < 1000 nM |
| Cc1cc(Cl)cc(-c2ccnc3cc(Cn4c(=O)ccn(C)c4=O)sc23)c1O[C@@H]1CCN(C)C[C@@H]1C [Example 457, 3-[[7-[5-chloro-2-[[(3S,4R)-1,3-dimethyl-4-piperidyl]oxy]-3-methyl-phenyl]thieno[3,2-b]pyridin-2-yl]methyl]-1-methyl-pyrimidine-2,4-dione] | < 1000 nM |
| Cc1cc(Cl)cc(-c2ccnc3cc(Cn4c(=O)ccn(C)c4=O)sc23)c1O[C@@H]1CN(C)C[C@@H]1F [Example 458, 3-[[7-[5-chloro-2-[(3R,4S)-4-fluoro-1-methyl-pyrrolidin-3-yl]oxy-3-methyl-phenyl]thieno[3,2-b]pyridin-2-yl]methyl]-1-methyl-pyrimidine-2,4-dione; 2,2,2-trifluoroacetic acid] | < 1000 nM |
| CCN1C[C@H](F)[C@H](Oc2c(C)cc(Cl)cc2-c2ccnc3cc(Cn4c(=O)ccn(C)c4=O)sc23)C1 [Example 459, 3-[[7-[5-chloro-2-[(3R,4S)-1-ethyl-4-fluoro-pyrrolidin-3-yl]oxy-3-methyl-phenyl]thieno[3,2-b]pyridin-2-yl]methyl]-1-methyl-pyrimidine-2,4-dione; 2,2,2-trifluoroacetic acid] | < 1000 nM |
| Cc1cc(C(F)(F)F)cc(-c2ccnc3cc(Cn4c(=O)c(F)cn(C)c4=O)sc23)c1O[C@H]1CCCNC1 [Example 460, 5-fluoro-1-methyl-3-[[7-[3-methyl-2-[[(3S)-3-piperidyl]oxy]-5-(trifluoromethyl)phenyl]thieno[3,2-b]pyridin-2-yl]methyl]pyrimidine-2,4-dione] | < 1000 nM |
| Cc1cc(Cl)cc(-c2ccnc3cc(Cn4c(=O)ccn(C)c4=O)sc23)c1OC1CC2CC1N(CCO)C2 (stereo not shown) [Example 461, 3-[[7-[5-chloro-2-[[3-(2-hydroxyethyl)-3-azabicyclo[2.2.1]heptan-5-yl]oxy]-3-methyl-phenyl]thieno[3,2-b]pyridin-2-yl]methyl]-1-methyl-pyrimidine-2,4-dione] | < 1000 nM |
| Cc1cc(Cl)cc(-c2ccnc3cc(CN4C(=O)CCC4=O)sc23)c1OC1CC[C@H](C)NC1 (stereo partly drawn) [Example 462, 1-[[7-[5-chloro-3-methyl-2-[[(6S)-6-methyl-3-piperidyl]oxy]phenyl]thieno[3,2-b]pyridin-2-yl]methyl]pyrrolidine-2,5-dione; 2,2,2-trifluoroacetic acid] | < 1000 nM |

The remaining lines, values ahead:

| IC50 | Structure (SMILES) |
| --- | --- |
| < 1000 nM | Cc1cc(Cl)cc(-c2ccnc3cc(CN4C(=O)CCC4=O)sc23)c1OC1CC[C@@H](C)NC1 (stereo partly drawn) [Example 463, 1-[[7-[5-chloro-3-methyl-2-[[(6R)-6-methyl-3-piperidyl]oxy]phenyl]thieno[3,2-b]pyridin-2-yl]methyl]pyrrolidine-2,5-dione; 2,2,2-trifluoroacetic acid] |
| < 1000 nM | Cc1cc(Cl)cc(-c2ccnc3cc(CN4C(=O)CCC4=O)sc23)c1OC1CC2(CCN2)C1 (stereo not shown) [Example 464, 1-[[7-[2-(1-azaspiro[3.3]heptan-6-yloxy)-5-chloro-3-methyl-phenyl]thieno[3,2-b]pyridin-2-yl]methyl]pyrrolidine-2,5-dione; 2,2,2-trifluoroacetic acid] |
| < 1000 nM | Cc1cc(Cl)cc(-c2ccnc3cc(Cn4c(=O)ccn(C)c4=O)sc23)c1OC1CC2CC1N(C)C2 (stereo not shown) [Example 465] |
| < 1000 nM | CCN1CC2CC(Oc3c(C)cc(Cl)cc3-c3ccnc4cc(Cn5c(=O)ccn(C)c5=O)sc34)C1C2 (stereo not shown) [Example 466, 3-[[7-[5-chloro-2-[(3-ethyl-3-azabicyclo[2.2.1]heptan-5-yl)oxy]-3-methyl-phenyl]thieno[3,2-b]pyridin-2-yl]methyl]-1-methyl-pyrimidine-2,4-dione] |
| < 1000 nM | Cc1cc(Cl)cc(-c2ccnc3cc(Cn4c(=O)ccn(C)c4=O)sc23)c1O[C@@H]1CN(CCO)C[C@@H]1F [Example 467, 3-[[7-[5-chloro-2-[(3R,4S)-4-fluoro-1-(2-hydroxyethyl)pyrrolidin-3-yl]oxy-3-methyl-phenyl]thieno[3,2-b]pyridin-2-yl]methyl]-1-methyl-pyrimidine-2,4-dione; 2,2,2-trifluoroacetic acid] |
| < 1000 nM | Cc1cc(Cl)cc(-c2ccnc3cc(Cn4c(=O)ccn(C)c4=O)sc23)c1O[C@@H]1CCCN[C@@H]1C [Example 468, 3-[[7-[5-chloro-3-methyl-2-[[(2R,3R)-2-methyl-3-piperidyl]oxy]phenyl]thieno[3,2-b]pyridin-2-yl]methyl]-1-methyl-pyrimidine-2,4-dione; 2,2,2-trifluoroacetic acid] |
| < 1000 nM | Cc1cc(Cl)cc(-c2ccnc3cc(Cn4c(=O)ccn(C)c4=O)sc23)c1O[C@@H]1CN(C(C)C)C[C@@H]1F [Example 469, 3-[[7-[5-chloro-2-[(3R,4S)-4-fluoro-1-isopropyl-pyrrolidin-3-yl]oxy-3-methyl-phenyl]thieno[3,2-b]pyridin-2-yl]methyl]-1-methyl-pyrimidine-2,4-dione] |
| < 1000 nM | Cc1cc(Cl)cc(-c2ccnc3cc(Cn4c(=O)c(F)cn(C)c4=O)sc23)c1O[C@@H]1CNC[C@@H]1F [Example 470, 3-[[7-[5-chloro-2-[(3R,4S)-4-fluoropyrrolidin-3-yl]oxy-3-methyl-phenyl]thieno[3,2-b]pyridin-2-yl]methyl]-5-fluoro-1-methyl-pyrimidine-2,4-dione] |
| < 1000 nM | Cc1cc(Cl)cc(-c2ccnc3cc(Cn4c(=O)ccn(C)c4=O)sc23)c1OC1CCCNCC1F (stereo not shown) [Example 471, 3-[[7-[5-chloro-2-(3-fluoroazepan-4-yl)oxy-3-methyl-phenyl]thieno[3,2-b]pyridin-2-yl]methyl]-1-methyl-pyrimidine-2,4-dione] |
| < 1000 nM | Cc1cc(Cl)cc(-c2ccnc3cc(Cn4c(=O)ccn(C)c4=O)sc23)c1O[C@H]1CCN(C)C[C@@H]1F [Example 472, 3-[[7-[5-chloro-2-[[(3S,4S)-3-fluoro-1-methyl-4-piperidyl]oxy]-3-methyl-phenyl]thieno[3,2-b]pyridin-2-yl]methyl]-1-methyl-pyrimidine-2,4-dione; 2,2,2-trifluoroacetic acid] |
| < 1000 nM | Cc1cc(Cl)cc(-c2ccnc3cc(Cn4c(=O)ccn(C)c4=O)sc23)c1O[C@H]1CCN(C(C)C)C[C@@H]1F [Example 473, 3-[[7-[5-chloro-2-[[(3S,4S)-3-fluoro-1-isopropyl-4-piperidyl]oxy]-3-methyl-phenyl]thieno[3,2-b]pyridin-2-yl]methyl]-1-methyl-pyrimidine-2,4-dione; 2,2,2-trifluoroacetic acid] |
